According to paper PMC9413995, “Synthesis and Assessment of the In Vitro and Ex Vivo Activity of Salicylate Synthase (Mbti) Inhibitors as New Candidates for the Treatment of Mycobacterial Infections” (Pharmaceuticals, 2022):
Converted amounts (≈) assume the structure as drawn. “And” between values parts separate entries of the source, which are not always exact repeats. Identical values can stand only once. “Also recorded” adds a separate entry of the source. Like-named read-outs stand apart in the source and are kept apart here.

Tests used:
[1] = tested on: M. bovis BCG; test: microbe, parasite or virus in culture; assay type: cell-based; conditions: iron-limiting chelated Sauton's medium, REMA, 15 days
[2] = biological target: T1, Recombinant M. tuberculosis MbtI (Mycobacterium tuberculosis, UniProt P9WFX1); test: MbtI enzymatic assay (fluorimetric); assay type: biochemical; conditions: for IC50: MbtI activity, calculated for compounds showing %RA < 20; for remaining activity at 100 µM / % RA (percentage of residual enzymatic activity): compound at 100 μM, 50 µM chorismic acid; for remaining activity at 100 µM: read-out: % RA (percentage of residual enzymatic activity)
T1 construct: made in house
Protocol: Recombinant M. tuberculosis MbtI was produced and purified, and enzyme activity determined as previously reported. All the reactions were performed at 37 °C, in a final volume of 400 μL of 50 mM Hepes pH 7.5, 5 mM MgCl2, containing 1–2 μM MbtI, by the addition of chorismic acid, and monitored using a Perkin Elmer LS3 fluorimeter (Ex. λ = 305 nm, Em. λ = 420 nm). […] IC50 values were determined by measuring the activity at different concentrations of the compound, and using the following equation with GraphPad software:(1) A[I] =A[0] × 1−[I]/[I]+IC50
where A[I] is the activity at inhibitor concentration [I] and A[0] is the activity in the absence of the inhibitor.

[3] = tested on: M. bovis BCG; assay type: cell-based
[4] = tested on: platelets; test: Platelet activation assessment by whole blood flow cytometry; assay type: cell-based, human
Protocol: (§1) Whole blood (WB), drawn with a 19-gauge needle without venous stasis into sodium citrate (0.129M, 1/10 volume/volume)-containing tubes (Vacutainer, Becton Dickinson), discarding the first 4 mL, was incubated with 1f (100 nM, 500 nM, and 1000 nM) or with solvent (DMSO; final dilution: 0.01%) up to 3 h at room temperature. Untreated (NT) WB of each healthy volunteer was used as a comparison.
(§2) PLT, RBC, and WBC counts were assessed at 0, 15, 30, 45, 60, 120 min and 3 h after the addition of 1f or solvent using Sysmex XE-2100 Automated Hematology Analyzer. Data were reported as count ± SD of each cell population. To evaluate the effect of 1f on platelet activation, conventional platelet activation markers [P-selectin and activated glycoprotein IIbIIIa (aGPIIbIIIa)], as well as platelet-associated tissue factor (TF) expression, were analyzed by WB flow cytometry as previously described at 0, 30 and 60 min after the addition of the highest concentration of 1f or solvent. […] Microvesicle formation, another well-known activation marker, was also assessed by flow cytometry at each time point after the addition of different concentrations of 1f or solvent. Fluorochrome-conjugated isotype controls were used to quantify the background labeling. […]

[5] = tested on: M. bovis BCG; assay type: cell-based; remark: listed apart in the source
[6] = tested on: platelet (PLT), red blood cells (RBC), and white blood cells (WBC); test: Blood cell count in whole blood of healthy volunteers; assay type: cell-based, human; conditions: 100 nM, 500 nM, 1 µM, up to 3 h, room temperature
Protocol: as §1, §2

[7] = tested on: M. abscessus; test: Infection assay of MPI-2-eGFP mAMs with M. abscessus tdTomato; assay type: cell-based
[8] = tested on: M. bovis BCG; conditions: previous lead; cited from earlier work
[9] = Mycobacterium tuberculosis variant bovis BCG, BCG, 360 h

T1 sequence (P9WFX1 whole entry): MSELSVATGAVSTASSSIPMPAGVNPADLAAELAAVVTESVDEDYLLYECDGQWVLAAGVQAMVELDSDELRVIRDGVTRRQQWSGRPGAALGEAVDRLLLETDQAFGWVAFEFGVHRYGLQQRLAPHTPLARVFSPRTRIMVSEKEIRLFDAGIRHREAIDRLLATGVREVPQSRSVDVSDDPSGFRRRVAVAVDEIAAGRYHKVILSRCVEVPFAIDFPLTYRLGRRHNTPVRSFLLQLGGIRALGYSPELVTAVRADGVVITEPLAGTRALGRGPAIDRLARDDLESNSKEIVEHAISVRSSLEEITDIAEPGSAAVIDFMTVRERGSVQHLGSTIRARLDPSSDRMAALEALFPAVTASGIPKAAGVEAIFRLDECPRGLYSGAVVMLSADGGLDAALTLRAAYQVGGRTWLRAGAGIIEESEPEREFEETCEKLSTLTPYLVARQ

Compound: N#Cc1cc(OCc2ccc3ccccc3c2)cc(-c2ccc(C(=O)O)o2)c1 [1j, 5-(3-Cyano-5-(naphthalen-2-ylmethoxy)phenyl)furan-2-carboxylic acid]
- MIC99 [1, 9]: 250 µM (≈ 92.3 µg/mL)
- melting point: 209 °C (dec.)
- IC50 [2]: 34.8 ± 2.5 µM
- remaining activity at 100 µM [2]: 19.8 ± 6.5%

Compound: N#Cc1cc(Oc2ccccc2)cc(-c2ccc(C(=O)O)o2)c1 [1a, 5-(3-Cyano-5-phenoxyphenyl)furan-2-carboxylic acid]
- MIC99 [1, 9]: 125 µM (≈ 38.2 µg/mL)
- IC50 [2]: 23.1 ± 2.6 µM
- % RA (percentage of residual enzymatic activity) [2]: 14.0 ± 4.1%
- remaining activity at 100 µM [2]: 14%

Compound: N#Cc1cc(OCCOc2ccccc2)cc(-c2ccc(C(=O)O)o2)c1 [1f, 5-(3-Cyano-5-(2-phenoxyethoxy)phenyl)furan-2-carboxylic acid]
- MIC99 [1, 9]: 63 µM (≈ 22 µg/mL)
- minimal concentration that prevented the production of siderophores ([3]; CAS assay, M. bovis BCG in chelated Sauton's medium): 32 µM
- relation of antimycobacterial activity to inhibition of iron uptake (Universal CAS assay) ([3]; M. bovis BCG culture supernatants, 15 days): correlated to the inhibition of iron uptake; also recorded: positively related to the inhibition of iron uptake
- platelet activation markers: P-selectin, monocyte-platelet and granulocyte-platelet aggregates, aGPIIbIIIa ([4]; 1 µM (highest concentration), 0, 30, 60 min): not affected
- platelet-associated Tissue Factor expression, microvesicle formation ([4]; 1 µM, 0, 30, 60 min): not influenced
- BCG_tdTomato fluorescence / eGFP in infected MPI-2_eGFP [5]: did not detect a reduction in Tdtomato fluorescence nor an increase in eGFP; also recorded: did not detect a significant efficacy in killing intracellular bacteria
- PLT, RBC, and WBC counts [6]: like untreated (NT) and DMSO-treated whole blood; also recorded: does not affect blood cell count; also recorded: no cytotoxicity against human cells
- Mab_tdTomato load 3-days p.t with respect to the prior time point ([7]; highest concentration tested (32 μM), plate reader): significantly reduced
- intracellular Mab_tdTomato burden in infected cells (microscopy, image segmentation) ([7]; up to 32 μM, 2- and 3-days p.t): did not display a decrease in the Mab_tdTomato burden
- Mab infection clearance / Mab_tdTomato load in infected MPI-2_eGFP ([7]; up to 32 μM, 2- and 3-days p.t, plate reader): did not resolve Mab infection; also recorded: did not detect a significant efficacy in killing intracellular bacteria
- IC50 [2]: 12.1 ± 2 µM
- remaining activity at 100 µM [2]: 5.5 ± 2.4%

Compound: N#Cc1cc(Oc2ccc3ccccc3c2)cc(-c2ccc(C(=O)O)o2)c1 [1h, 5-(3-Cyano-5-(naphthalen-2-yloxy)phenyl)furan-2-carboxylic acid]
- MIC99 [1, 9]: 125 µM (≈ 44.4 µg/mL)
- melting point: 226 °C
- IC50 [2]: 16.3 ± 1.2 µM
- remaining activity at 100 µM [2]: 12.7 ± 2%

Compound: N#Cc1cc(OCCc2ccccc2)cc(-c2ccc(C(=O)O)o2)c1 [1c, 5-(3-Cyano-5-phenethoxyphenyl)furan-2-carboxylic acid]
- MIC99 [1, 9]: 250 µM (≈ 83.3 µg/mL)
- melting point: 202 °C
- IC50 [2]: ~3 µM and 3 µM
- remaining activity at 100 µM [2]: 0.6 ± 0.5%

Compound: N#Cc1cc(OC/C=C/c2ccccc2)cc(-c2ccc(C(=O)O)o2)c1 [1e, (E)-5-(3-(Cinnamyloxy)-5-cyanophenyl)furan-2-carboxylic acid]
- MIC99 [1, 9]: ~125 µM (≈ 43.2 µg/mL)
- MIC99 [1]: 125 µM (≈ 43.2 µg/mL)
- melting point: 170 °C
- IC50 [2]: 13.5 ± 1 µM
- remaining activity at 100 µM [2]: 11.5 ± 1.7%

Compound: N#Cc1cc(OCc2ccccc2)cc(-c2ccc(C(=O)O)o2)c1 [1b, 5-(3-(Benzyloxy)-5-cyanophenyl)furan-2-carboxylic acid]
- MIC99 [1, 9]: 250 µM (≈ 79.8 µg/mL)
- melting point: 187 °C
- IC50 [2]: 15.6 ± 1.2 µM
- remaining activity at 100 µM [2]: 1.2 ± 0.4%

Compound: N#Cc1cc(OCCNc2ccccc2)cc(-c2ccc(C(=O)O)o2)c1 [1g, 5-(3-Cyano-5-(2-(phenylamino)ethoxy)phenyl)furan-2-carboxylic acid]
- MIC99 [1, 9]: 250 µM (≈ 87.1 µg/mL)
- IC50 [2]: ~18 µM and 18 µM
- remaining activity at 100 µM [2]: 9.3 ± 2.2%

Compound: N#Cc1cc(Oc2ccc3cccnc3c2)cc(-c2ccc(C(=O)O)o2)c1 [1i, 5-(3-Cyano-5-(quinolin-7-yloxy)phenyl)furan-2-carboxylic acid]
- MIC99 [1, 9]: 125 µM (≈ 44.5 µg/mL)
- melting point: 263 °C (dec.)
- IC50 [2]: 16.6 ± 1 µM
- remaining activity at 100 µM [2]: 13.9 ± 3.1%

Compound: N#Cc1cc(OCCCc2ccccc2)cc(-c2ccc(C(=O)O)o2)c1 [1d, 5-(3-Cyano-5-(3-phenylpropoxy)phenyl)furan-2-carboxylic acid]
- melting point: 186 °C
- % RA (percentage of residual enzymatic activity) [2]: 25.6 ± 5.8%
- remaining activity at 100 µM [2]: ~25%

Compound: N#Cc1cccc(-c2ccc(C(=O)O)o2)c1 [I, 5-(3-cyanophenyl)furan-2-carboxylic acid]
- MIC99 [8]: 250 µM (≈ 53.3 µg/mL)
